Assay results from PubChem BioAssay (NCI).
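Values below derive from 48-hour exposures of cells grown in 96-well plates, with endpoints linearly interpolated between the two concentrations bracketing the appropriate inhibition level. Here, GI50 denotes the concentration required for 50% inhibition of growth. At the TGI there is no net growth.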

Legend:
Assay in all cases: growth of human tumour cells (NCI), 48 h
A549 NSCLC = system: A549 NSCLC
RPMI-8226 leukemia = system: RPMI-8226 leukemia
HCT-116 colon = system: HCT-116 colon
M14 melanoma = system: M14 melanoma
U251 CNS = system: U251 CNS
UACC-257 melanoma = system: UACC-257 melanoma
OVCAR-4 ovarian = system: OVCAR-4 ovarian
OVCAR-3 ovarian = system: OVCAR-3 ovarian
IGROV1 ovarian = system: IGROV1 ovarian
MDA-MB-231 breast = system: MDA-MB-231 breast
SF-295 CNS = system: SF-295 CNS
HOP-92 NSCLC = system: HOP-92 NSCLC
NCI/ADR-RES ovarian = system: NCI/ADR-RES ovarian
SK-MEL-2 melanoma = system: SK-MEL-2 melanoma
SK-MEL-28 melanoma = system: SK-MEL-28 melanoma
OVCAR-5 ovarian = system: OVCAR-5 ovarian
EKVX NSCLC = system: EKVX NSCLC
ACHN renal = system: ACHN renal
CAKI-1 renal = system: CAKI-1 renal
KM12 colon = system: KM12 colon
SF-539 CNS = system: SF-539 CNS
HCT-15 colon = system: HCT-15 colon
SF-268 CNS = system: SF-268 CNS
SK-MEL-5 melanoma = system: SK-MEL-5 melanoma
MALME-3M melanoma = system: MALME-3M melanoma
HCC-2998 colon = system: HCC-2998 colon
PC-3 prostate = system: PC-3 prostate
SN12C renal = system: SN12C renal
SK-OV-3 ovarian = system: SK-OV-3 ovarian
SW-620 colon = system: SW-620 colon
NCI-H522 lung = system: NCI-H522 lung
HT29 colon = system: HT29 colon
UACC-62 melanoma = system: UACC-62 melanoma
HOP-62 NSCLC = system: HOP-62 NSCLC
TK-10 renal = system: TK-10 renal
MOLT-4 leukemia = system: MOLT-4 leukemia
DU-145 prostate = system: DU-145 prostate
MDA-MB-435 = system: MDA-MB-435
HS 578T breast = system: HS 578T breast
SNB-75 CNS = system: SNB-75 CNS
COLO 205 colon = system: COLO 205 colon
OVCAR-8 ovarian = system: OVCAR-8 ovarian
T-47D breast = system: T-47D breast
786-0 renal = system: 786-0 renal
A498 renal = system: A498 renal
NCI-H226 lung = system: NCI-H226 lung
LOX IMVI melanoma = system: LOX IMVI melanoma
MCF7 breast = system: MCF7 breast
MDA-MB-468 breast = system: MDA-MB-468 breast
RXF 393 renal = system: RXF 393 renal
CCRF-CEM leukemia = system: CCRF-CEM leukemia
NCI-H23 lung = system: NCI-H23 lung
NCI-H460 lung = system: NCI-H460 lung
SNB-19 CNS = system: SNB-19 CNS
UO-31 renal = system: UO-31 renal
K-562 leukemia = system: K-562 leukemia
HL-60(TB) leukemia = system: HL-60(TB) leukemia
BT-549 breast = system: BT-549 breast

Question: How did the GI50 (A549 NSCLC) turn out when `Cn1cc(-c2cc(N)n3nc(-c4cn(C)c5ncc(Br)cc45)cc3n2)c2cc(Br)cnc21` was run?
Answer: 2.07 µM

Question: What about the TGI (A549 NSCLC) of the same compound?
Answer: 4.97 µM

Question: And the GI50 (RPMI-8226 leukemia)?
Answer: 2.23 µM

Question: What about the TGI (RPMI-8226 leukemia) of the same compound?
Answer: 5.87 µM

Question: What about the GI50 (HCT-116 colon) of the same compound?
Answer: 1.72 µM

Question: What about the TGI (HCT-116 colon) of the same compound?
Answer: 3.3 µM

Question: And the GI50 (M14 melanoma)?
Answer: 1.65 µM

Question: And the TGI (M14 melanoma)?
Answer: 3.16 µM

Question: And the GI50 (U251 CNS)?
Answer: 1.93 µM

Question: What about the TGI (U251 CNS) of the same compound?
Answer: 3.89 µM

Question: What about the GI50 (UACC-257 melanoma) of the same compound?
Answer: 2.28 µM

Question: And the TGI (UACC-257 melanoma)?
Answer: 5.33 µM

Question: And the GI50 (OVCAR-4 ovarian)?
Answer: 2.11 µM

Question: And the TGI (OVCAR-4 ovarian)?
Answer: 4.57 µM

Question: And the GI50 (OVCAR-3 ovarian)?
Answer: 1.72 µM

Question: What about the TGI (OVCAR-3 ovarian) of the same compound?
Answer: 3.21 µM

Question: What about the GI50 (IGROV1 ovarian) of the same compound?
Answer: 4.65 µM

Question: And the TGI (IGROV1 ovarian)?
Answer: 18.5 µM

Question: What about the GI50 (MDA-MB-231 breast) of the same compound?
Answer: 2.59 µM

Question: And the TGI (MDA-MB-231 breast)?
Answer: 9.79 µM

Question: What about the GI50 (SF-295 CNS) of the same compound?
Answer: 1.86 µM

Question: And the TGI (SF-295 CNS)?
Answer: 4.02 µM

Question: What about the GI50 (HOP-92 NSCLC) of the same compound?
Answer: 1.71 µM

Question: And the TGI (HOP-92 NSCLC)?
Answer: 6.42 µM

Question: And the GI50 (NCI/ADR-RES ovarian)?
Answer: 2.04 µM

Question: What about the TGI (NCI/ADR-RES ovarian) of the same compound?
Answer: 4.7 µM

Question: What about the GI50 (SK-MEL-2 melanoma) of the same compound?
Answer: 2.01 µM

Question: What about the TGI (SK-MEL-2 melanoma) of the same compound?
Answer: 4.4 µM

Question: What about the GI50 (SK-MEL-28 melanoma) of the same compound?
Answer: 1.77 µM

Question: What about the TGI (SK-MEL-28 melanoma) of the same compound?
Answer: 3.35 µM

Question: What about the GI50 (OVCAR-5 ovarian) of the same compound?
Answer: 10.5 µM

Question: And the TGI (OVCAR-5 ovarian)?
Answer: 33.9 µM

Question: What about the GI50 (EKVX NSCLC) of the same compound?
Answer: 2.18 µM

Question: And the TGI (EKVX NSCLC)?
Answer: 8.92 µM

Question: What about the GI50 (ACHN renal) of the same compound?
Answer: 1.96 µM

Question: And the TGI (ACHN renal)?
Answer: 3.72 µM

Question: What about the GI50 (CAKI-1 renal) of the same compound?
Answer: 3.68 µM

Question: And the TGI (CAKI-1 renal)?
Answer: 15.4 µM

Question: And the GI50 (KM12 colon)?
Answer: 1.83 µM

Question: What about the TGI (KM12 colon) of the same compound?
Answer: 5.81 µM

Question: What about the GI50 (SF-539 CNS) of the same compound?
Answer: 1.71 µM

Question: And the TGI (SF-539 CNS)?
Answer: 3.18 µM

Question: And the GI50 (HCT-15 colon)?
Answer: 1.59 µM

Question: And the TGI (HCT-15 colon)?
Answer: 3.24 µM

Question: And the GI50 (SF-268 CNS)?
Answer: 7.52 µM

Question: What about the TGI (SF-268 CNS) of the same compound?
Answer: 38 µM

Question: And the GI50 (SK-MEL-5 melanoma)?
Answer: 3.95 µM

Question: And the TGI (SK-MEL-5 melanoma)?
Answer: 16.8 µM

Question: And the GI50 (MALME-3M melanoma)?
Answer: 1.93 µM

Question: What about the TGI (MALME-3M melanoma) of the same compound?
Answer: 3.49 µM

Question: And the GI50 (HCC-2998 colon)?
Answer: 1.73 µM

Question: And the TGI (HCC-2998 colon)?
Answer: 3.44 µM

Question: And the GI50 (PC-3 prostate)?
Answer: 2.49 µM

Question: What about the TGI (PC-3 prostate) of the same compound?
Answer: 8.41 µM

Question: And the GI50 (SN12C renal)?
Answer: 10.6 µM

Question: And the TGI (SN12C renal)?
Answer: 34.9 µM

Question: And the GI50 (SK-OV-3 ovarian)?
Answer: 19.1 µM

Question: What about the TGI (SK-OV-3 ovarian) of the same compound?
Answer: 36.4 µM

Question: What about the GI50 (SW-620 colon) of the same compound?
Answer: 1.77 µM

Question: And the TGI (SW-620 colon)?
Answer: 3.59 µM

Question: And the GI50 (NCI-H522 lung)?
Answer: 2.27 µM

Question: And the TGI (NCI-H522 lung)?
Answer: 5.52 µM

Question: And the GI50 (HT29 colon)?
Answer: 1.8 µM

Question: What about the TGI (HT29 colon) of the same compound?
Answer: 3.44 µM

Question: And the GI50 (UACC-62 melanoma)?
Answer: 1.58 µM

Question: What about the TGI (UACC-62 melanoma) of the same compound?
Answer: 3.03 µM

Question: What about the GI50 (HOP-62 NSCLC) of the same compound?
Answer: 2.36 µM

Question: And the TGI (HOP-62 NSCLC)?
Answer: 6.63 µM

Question: And the GI50 (TK-10 renal)?
Answer: 1.79 µM

Question: What about the TGI (TK-10 renal) of the same compound?
Answer: 4.03 µM

Question: And the GI50 (MOLT-4 leukemia)?
Answer: 1.53 µM

Question: And the TGI (MOLT-4 leukemia)?
Answer: 4.37 µM

Question: And the GI50 (DU-145 prostate)?
Answer: 2.54 µM

Question: What about the TGI (DU-145 prostate) of the same compound?
Answer: 6.77 µM

Question: What about the GI50 (MDA-MB-435) of the same compound?
Answer: 1.95 µM

Question: And the TGI (MDA-MB-435)?
Answer: 4.29 µM

Question: What about the GI50 (HS 578T breast) of the same compound?
Answer: 3.19 µM

Question: And the TGI (HS 578T breast)?
Answer: 15.7 µM

Question: What about the GI50 (SNB-75 CNS) of the same compound?
Answer: 8.48 µM

Question: And the TGI (SNB-75 CNS)?
Answer: 26.3 µM

Question: And the GI50 (COLO 205 colon)?
Answer: 4.29 µM

Question: What about the TGI (COLO 205 colon) of the same compound?
Answer: 31.8 µM

Question: What about the GI50 (OVCAR-8 ovarian) of the same compound?
Answer: 2.49 µM

Question: And the TGI (OVCAR-8 ovarian)?
Answer: 6.67 µM

Question: What about the GI50 (T-47D breast) of the same compound?
Answer: 2.35 µM

Question: And the TGI (T-47D breast)?
Answer: 9.43 µM

Question: What about the GI50 (786-0 renal) of the same compound?
Answer: 1.77 µM

Question: What about the TGI (786-0 renal) of the same compound?
Answer: 3.46 µM

Question: What about the GI50 (A498 renal) of the same compound?
Answer: > 100 µM

Question: And the TGI (A498 renal)?
Answer: > 100 µM

Question: And the GI50 (NCI-H226 lung)?
Answer: 8.32 µM

Question: What about the TGI (NCI-H226 lung) of the same compound?
Answer: 26.4 µM

Question: What about the GI50 (LOX IMVI melanoma) of the same compound?
Answer: 1.59 µM

Question: And the TGI (LOX IMVI melanoma)?
Answer: 2.96 µM

Question: What about the GI50 (MCF7 breast) of the same compound?
Answer: 1.72 µM

Question: And the TGI (MCF7 breast)?
Answer: 4.12 µM

Question: What about the GI50 (MDA-MB-468 breast) of the same compound?
Answer: 1.54 µM

Question: And the TGI (MDA-MB-468 breast)?
Answer: 2.95 µM

Question: What about the GI50 (RXF 393 renal) of the same compound?
Answer: 2.62 µM

Question: What about the TGI (RXF 393 renal) of the same compound?
Answer: 6.9 µM

Question: And the GI50 (CCRF-CEM leukemia)?
Answer: 1.43 µM

Question: What about the TGI (CCRF-CEM leukemia) of the same compound?
Answer: 3.72 µM

Question: What about the GI50 (NCI-H23 lung) of the same compound?
Answer: 1.92 µM

Question: And the TGI (NCI-H23 lung)?
Answer: 3.76 µM

Question: And the GI50 (NCI-H460 lung)?
Answer: 1.91 µM

Question: What about the TGI (NCI-H460 lung) of the same compound?
Answer: 3.89 µM

Question: What about the GI50 (SNB-19 CNS) of the same compound?
Answer: 1.95 µM

Question: And the TGI (SNB-19 CNS)?
Answer: 4.05 µM

Question: And the GI50 (UO-31 renal)?
Answer: 6.81 µM

Question: And the TGI (UO-31 renal)?
Answer: 22.1 µM

Question: And the GI50 (K-562 leukemia)?
Answer: 2.34 µM

Question: What about the TGI (K-562 leukemia) of the same compound?
Answer: 8.45 µM

Question: What about the GI50 (HL-60(TB) leukemia) of the same compound?
Answer: 2 µM

Question: What about the TGI (HL-60(TB) leukemia) of the same compound?
Answer: 4.94 µM

Question: What about the GI50 (BT-549 breast) of the same compound?
Answer: 3.38 µM

Question: What about the TGI (BT-549 breast) of the same compound?
Answer: 14.1 µM
